32 compounds from US8367658B2, “Pyrazin-2-yl-pyridin-2-yl-amine and pyrazin-2-yl-pyrimidin-4-yl-amine compounds and their use” (Cancer Research Technology Limited, priority 2007, dated 2013) can be followed below.

SMILES strings stand for the structures. “And” between values parts separate entries of the source, which are not always exact repeats. Identical values can stand only once.

Broadly, the IC50 is the concentration needed to halve the response being measured. Read a high IC50 as weaker potency in that assay.

For this assay, the target named is T1, CHK1 (Homo sapiens, UniProt O14757).
T1 sequence (O14757 1-476): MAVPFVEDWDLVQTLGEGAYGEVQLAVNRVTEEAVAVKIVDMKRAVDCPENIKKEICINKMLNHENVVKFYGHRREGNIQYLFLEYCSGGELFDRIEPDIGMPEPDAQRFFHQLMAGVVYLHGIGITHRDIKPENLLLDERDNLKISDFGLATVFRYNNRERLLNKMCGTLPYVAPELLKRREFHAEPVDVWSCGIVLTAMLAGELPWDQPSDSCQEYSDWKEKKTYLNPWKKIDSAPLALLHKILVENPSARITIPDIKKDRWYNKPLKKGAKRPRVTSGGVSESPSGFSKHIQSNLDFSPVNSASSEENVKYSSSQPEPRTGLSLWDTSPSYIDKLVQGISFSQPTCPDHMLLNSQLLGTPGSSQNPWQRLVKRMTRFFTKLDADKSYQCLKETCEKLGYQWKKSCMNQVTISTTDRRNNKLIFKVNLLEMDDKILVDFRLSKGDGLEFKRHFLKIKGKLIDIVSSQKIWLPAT
Nature of the assay: CHK1 kinase function inhibition assay (DELFIA, phosphorylation of a CDC25C peptide). Format: biochemical. Particulars: CHK1 1 nM, ATP 30 μM, 30 minutes at room temperature. As for the experimental part:
Measurement of Inhibition of CHK1 Kinase Function
CHK1 kinase function was measured in a DELFIA® assay in order to monitor phosphorylation of a CDC25C peptide using a specific phospho antibody.
The reaction mixture was incubated for 30 minutes at room temperature and then stopped by the addition of buffer (125 μL) containing 40 mM EDTA, 0.05% Tween 20, 0.1% BSA in TBS (10× concentrate, Sigma). An aliquot (100 μL) of the stopped reaction mixture was transferred to a black neutravidin-coated plate (Perbio) and incubated for 1 hour on a shaker (Titertek, Flow Laboratories) at room temperature. […] The plates were washed a further four times with wash buffer before the addition of enhancement solution (100 μL/well, PerkinElmer Life Sciences).
For `N#Cc1cnc(Nc2cc(NCC3CCCNC3)c(N3CCC(O)C3)cn2)cn1` (stereo in doubt) [Compound Y-061, 5-(5-(3-Hydroxypyrrolidin-1-yl)-4-((R)-piperidin-3-ylmethylamino)pyridin-2-ylamino) pyrazine-2-carbonitrile], the IC50 is ≤ 0.1 µM.

With `COC(=O)c1cnc(Nc2cnc(C#N)cn2)cc1N[C@H]1CC2CC[C@H](C1)N2C(=O)OC(C)(C)C` (stereo in doubt) [Compound Y-074, (1R,5R)-tert-Butyl 3-(2-(5-cyanopyrazin-2-ylamino)-5-(methoxycarbonyl)pyridin-4-ylamino)-8-azabicyclo[3.2.1]octane-8-carboxylate], the IC50 was 1 to 10 µM.

For `N#Cc1cnc(Nc2cc(NCC3CCNCC3)c(N)cn2)cn1` [Compound Y-001, 5-(5-Amino-4-(piperidin-4-ylmethylamino)pyridin-2-ylamino)pyrazine-2-carbonitrile], the IC50 is ≤ 1 µM and 0.1 to 1 µM.

`N#Cc1cnc(Nc2cc(NCCN)c(N)cn2)cn1` [Compound Y-003, 5-(5-Amino-4-(2-aminoethylamino)pyridin-2-ylamino)pyrazine-2-carbonitrile]: the IC50 was ≤ 1 µM and 0.66 µM and 0.1 to 1 µM.

Turning to `CN(C)CCNc1cc(Nc2cnc(C#N)cn2)ncc1N` [Compound Y-004, 5-(5-Amino-4-(2-(dimethylamino)ethylamino)pyridin-2-ylamino)pyrazine-2-carbonitrile], the IC50 was 1 to 10 µM.

Regarding `N#Cc1cnc(Nc2cc(NC3CCNCC3)c(N)cn2)cn1` [Compound Y-005, 5-(5-Amino-4-(piperidin-4-ylamino)pyridin-2-ylamino)pyrazine-2-carbonitrile], the IC50 was ≤ 1 µM and 0.1 to 1 µM.

As for `CN1C2CCC1CC(Nc1cc(Nc3cnc(C#N)cn3)ncc1N)C2` (centres unmarked) [Compound Y-006, 5-(5-Amino-4-(8-methyl-8-aza-bicyclo[3.2.1]octan-3-ylamino)-pyridin-2-ylamino)pyrazine-2-carbonitrile], the IC50 is 1 to 10 µM.

With `CN1CCC(Nc2cc(Nc3cnc(C#N)cn3)ncc2N)CC1` [Compound Y-007, 5-(5-Amino-4-(1-methylpiperidin-4-ylamino)pyridin-2-ylamino)pyrazine-2-carbonitrile], the IC50 is ≤ 0.1 µM.

For `N#Cc1cnc(Nc2cc(N[C@@H]3CCCNC3)c(N)cn2)cn1` [Compound Y-008, (R)-5-(5-Amino-4-(piperidin-3-ylamino)pyridin-2-ylamino)pyrazine-2-carbonitrile], the IC50 is ≤ 1 µM and 0.1 to 1 µM.

For the compound `N#Cc1cnc(Nc2cc(N[C@H]3CCCNC3)c(N)cn2)cn1` [Compound Y-009, (S)-5-(5-Amino-4-(piperidin-3-ylamino)pyridin-2-ylamino)pyrazine-2-carbonitrile], the IC50 is 1 to 10 µM.

Take `CN(C)CC(=O)Nc1cnc(Nc2cnc(C#N)cn2)cc1NCC1CCNCC1` [Compound Y-010, N-(6-(5-Cyanopyrazin-2-ylamino)-4-(piperidin-4-ylmethylamino)pyridin-3-yl)-2-(dimethylamino)acetamide]: the IC50 is ≤ 1 µM and 0.1 to 1 µM.

As for `N#Cc1cnc(Nc2cc(NCC3CCNCC3)c(NC(=O)CCN3CCCCC3)cn2)cn1` [Compound Y-011, N-(6-(5-Cyanopyrazin-2-ylamino)-4-(piperidin-4-ylmethylamino)pyridin-3-yl)-3-(piperidin-1-yl)propanamide], the IC50 lay within 1 to 10 µM.

`COc1ccc(CCC(=O)Nc2cnc(Nc3cnc(C#N)cn3)cc2NCC2CCNCC2)cc1` [Compound Y-012, N-(6-(5-Cyanopyrazin-2-ylamino)-4-(piperidin-4-ylmethylamino)pyridin-3-yl)-3-(4-methoxyphenyl)propanamide] had an IC50 of 1 to 10 µM.

Compound `COc1ccc(CC(=O)Nc2cnc(Nc3cnc(C#N)cn3)cc2NCC2CCNCC2)cc1` [Compound Y-013, N-(6-(5-Cyanopyrazin-2-ylamino)-4-(piperidin-4-ylmethylamino)pyridin-3-yl)-2-(4-methoxyphenyl)acetamide] had an IC50 of 1 to 10 µM.

The compound `CN(C)CC(=O)Nc1cnc(Nc2cnc(C#N)cn2)cc1NC1CC2CCC(C1)N2C` (centres unmarked) [Compound Y-015, N-(6-(5-Cyanopyrazin-2-ylamino)-4-(8-methyl-8-aza-bicyclo[3.2.1]octan-3-ylamino)pyridin-3-yl)-2-(dimethylamino)acetamide] gave a half-inhibitory concentration (IC50) of 1 to 10 µM.

`CN(C)CC(=O)Nc1cnc(Nc2cnc(C#N)cn2)cc1NC1CCNCC1` [Compound Y-016, N-(6-(5-Cyanopyrazin-2-ylamino)-4-(piperidin-4-ylamino)pyridin-3-yl)-2-(dimethylamino)acetamide]: the 50% inhibitory concentration (IC50) is ≤ 1 µM and 0.1 to 1 µM.

Turning to `COC(=O)c1cnc(Nc2cnc(C#N)cn2)cc1N(C)CC1CCNCC1` [Compound Y-021, Methyl 6-(5-cyanopyrazin-2-ylamino)-4-(methyl(piperidin-4-ylmethyl)amino)nicotinate], the IC50 was ≤ 0.1 µM.

For `COC(=O)c1cnc(Nc2cnc(C#N)cn2)cc1NC(C)C1CCNCC1` (centres unmarked) [Compound Y-022, Methyl 6-(5-cyanopyrazin-2-ylamino)-4-(1-(piperidin-4-yl)ethylamino)nicotinate], the IC50 is ≤ 0.1 µM.

Regarding `COC(=O)c1cnc(Nc2cnc(C#N)cn2)cc1NC1CC(C)(C)N(C)C(C)(C)C1` [Compound Y-024, Methyl 6-(5-cyanopyrazin-2-ylamino)-4-(1,2,2,6,6-pentamethylpiperidin-4-ylamino)nicotinate], the IC50 is ≤ 1 µM and 0.1 to 1 µM.

For `COC(=O)c1cnc(Nc2cnc(C#N)cn2)cc1NCC1(C)CCNCC1` [Compound Y-026, Methyl 6-(5-cyanopyrazin-2-ylamino)-4-((4-methylpiperidin-4-yl)methylamino)nicotinate], the IC50 was ≤ 0.1 µM.

As to `COC(=O)c1cnc(Nc2cnc(C#N)cn2)cc1N[C@H]1CCN[C@H](C(=O)Nc2ccccc2)C1` [Compound Y-028, Methyl 6-(5-cyanopyrazin-2-ylamino)-4-((2S,4S)-2-(phenylcarbamoyl)piperidin-4-ylamino)nicotinate], the IC50 is ≤ 1 µM and 0.1 to 1 µM.

Consider `COC(=O)c1cnc(Nc2cnc(C#N)cn2)cc1NC1C[C@H]2CC[C@@H](C1)N2Cc1ccccc1` (stereo partly drawn) [Compound Y-029, Methyl 4-((1R,3s,5S)-8-benzyl-8-azabicyclo[3.2.1]octan-3-ylamino)-6-(5-cyanopyrazin-2-ylamino)nicotinate], for which the IC50 is ≤ 0.1 µM.

In the case of `COC(=O)c1cnc(Nc2cnc(C#N)cn2)cc1N[C@H]1C[C@H]2CC[C@@H](C1)N2Cc1ccccc1` [Compound Y-030, Methyl 4-((1R,3r,5S)-8-benzyl-8-azabicyclo[3.2.1]octan-3-ylamino)-6-(5-cyanopyrazin-2-ylamino)nicotinate], the IC50 fell in the range of 1 to 10 µM.

Consider `COC(=O)c1cnc(Nc2cnc(C#N)cn2)cc1NCC1(C)COC1` [Compound Y-031, Methyl 6-(5-cyanopyrazin-2-ylamino)-4-((3-methyloxetan-3-yl)methylamino)nicotinate], for which the IC50 is ≤ 1 µM and 0.1 to 1 µM.

As for `CCNC(=O)c1cnc(Nc2cnc(C#N)cn2)cc1NC1CC2CCC(C1)N2C` (centres unmarked) [Compound Y-034, 6-(5-Cyanopyrazin-2-ylamino)-N-ethyl-4-(8-methyl-8-azabicyclo[3.2.1]octan-3-ylamino)nicotinamide], the IC50 is ≤ 1 µM and 0.1 to 1 µM.

`COC(=O)c1cnc(Nc2cnc(C)cn2)cc1NCC1CCNCC1` [Compound Y-036, Methyl 6-(5-methylpyrazin-2-ylamino)-4-(piperidin-4-ylmethylamino)nicotinate]: the IC50 is ≤ 1 µM and 0.1 to 1 µM.

On to `COC(=O)c1cnc(Nc2cnc(OC)cn2)cc1NC1CC2CCC(C1)N2C` (centres unmarked) [Compound Y-037, Methyl 6-(5-methoxypyrazin-2-ylamino)-4-(8-methyl-8-azabicyclo[3.2.1]octan-3-ylamino)nicotinate], for which the IC50 is ≤ 0.1 µM.

For the compound `N#Cc1cnc(Nc2cc(OCC3CCNCC3)c(N)cn2)cn1` [Compound Y-038, 5-(5-Amino-4-(piperidin-4-ylmethoxy)pyridin-2-ylamino)pyrazine-2-carbonitrile], the IC50 is 1 to 10 µM.

For `CN(C)CC(=O)Nc1cnc(Nc2cnc(C#N)cn2)cc1OCC1CCNCC1` [Compound Y-039, N-(6-(5-Cyanopyrazin-2-ylamino)-4-(piperidin-4-ylmethoxy)pyridin-3-yl)-2-(dimethylamino)acetamide], the IC50 lay within 1 to 10 µM.

Regarding `CN1CCC(Nc2cc(Nc3cnc(C#N)cn3)ncc2[N+](=O)[O-])CC1` [Compound Y-040, 5-(4-(1-Methylpiperidin-4-ylamino)-5-nitropyridin-2-ylamino)pyrazine-2-carbonitrile], the IC50 was ≤ 0.1 µM.

Regarding `N#Cc1cnc(Nc2cc(NCC3CCCNC3)c(N)cn2)cn1` (centres unmarked) [Compound Y-041, 5-(5-Amino-4-(piperidin-3-ylmethylamino)pyridin-2-ylamino)pyrazine-2-carbonitrile], the IC50 is ≤ 0.1 µM.

With `N#Cc1cnc(Nc2cc(NCCCN)c(N)cn2)cn1` [Compound Y-042, 5-(5-Amino-4-(3-aminopropylamino)pyridin-2-ylamino)pyrazine-2-carbonitrile], the IC50 is ≤ 0.1 µM.
